Test results: ChEMBL document CHEMBL1121958, “A consideration for structure-taste correlations of perillartines using pattern-recognition techniques” (J Med Chem, 1982)

experiment: Partition coefficient (logP); assay type: physicochemical; details: octanol/water

| logP | SMILES |
| --- | --- |
| 1.48 | O/N=C/C1=CC=CCC1 |
| 2.58 | C=C(C)C1CC=C(/C=N/O)CC1 (configuration not stated) |
| 0.8 | COCC1CCC=C(/C=N/O)C1 (configuration not stated) |
| 1.4 | COC(C)C1CCC=C(/C=N/O)C1 (configuration not stated) |
| 1.1 | COC(C)C1=CCC(/C=N/O)=CC1 (configuration not stated) |
| -0.72 | O/N=C/C1=CCCOC1 |
| -0.1 | COC(C)(CO)C1CC=C(/C=N/O)CC1 (configuration not stated) |
| 0.34 | O/N=C/C1=CCSCC1 |
| 0.72 | COCC(C)(OC)C1CC=C(/C=N/O)CC1 (configuration not stated) |
| -0.72 | O/N=C/C1=CCOCC1 |
| 2.28 | C=CC1CC=C(/C=N/O)CC1 (configuration not stated) |
| -0.1 | COCC(C)(O)C1CC=C(/C=N/O)CC1 (configuration not stated) |
| 0.78 | CC1=CC=C(/C=N/O)CC1 |
| 1.1 | COC(C)C1=CC=C(/C=N/O)CC1 (configuration not stated) |
| 0.87 | C/C=C(C)/C=N/O |
| 0.8 | COCC1=CCC(/C=N/O)=CC1 |
| 1.1 | COC(C)C1=CCC=C(/C=N/O)C1 (configuration not stated) |
| 1.48 | O/N=C/C1=CCCCC1 |
| 1.4 | COC(C)C1CC=C(/C=N/O)CC1 (configuration not stated) |
| 1.9 | O/N=C/C1=CC2C=CC1CC2 (configuration not stated) |
| 1.1 | COCC1CC=C(/C=N/O)CC1 (configuration not stated) |
| -0.92 | CC(O)(CO)C1CC=C(/C=N/O)CC1 (configuration not stated) |
